US10617748B2, “Immunogenic control of tumours and tumour cells” (LIFE SCIENCES RESEARCH PARTNERS VZW, priority 2008, dated 2020)
Peptide text beside a SMILES is read from it.

Tests used:
[1] = test system: APCs presenting the natural or modified MAGE-3 T-cell epitope; assay: Cytotoxic CD4+ T cells elicited by in vivo immunisation; apoptosis (annexin V, Facs) of peptide-loaded APC in co-culture, MAGE-3 epitope; set-up: species or system C57BI/6 mice; conditions: 25 μg peptide, 3 footpath injections in CFA/IFA; splenic CD4+ T cells co-cultured 24 h with APC loaded with SEQ ID NO:1 or SEQ ID NO:2 (5 μg/mL)
Protocol: The sequence of the (natural) T-cell epitope corresponds to amino acids 258 to 266 of MAGE-3, namely: YRQVPGSDP (SEQ ID NO:1).
(§1) Finally, cells are analysed by Facs analysis.

[2] = test system: APCs presenting the natural or modified survivin T-cell epitope; assay: Cytotoxic CD4+ T cells elicited by in vivo immunisation; apoptosis (annexin V, Facs) of peptide-loaded APC in co-culture, survivin epitope; set-up: species or system C57BI/6 mice; conditions: 25 μg peptide, 3 footpath injections in CFA/IFA; splenic CD4+ T cells co-cultured 24 h with APC loaded with SEQ ID NO:5 or SEQ ID NO:6 (5 μg/mL)
Protocol: The sequence of the peptide corresponds to amino acids 61 to 69 of survivin, namely: FKELEGWEP (SEQ ID NO:5).
as §1

[3] = test system: APCs presenting the natural or modified Epstein-Barr LMP2 T-cell epitope; assay: Cytotoxic CD4+ T cells elicited by in vivo immunisation; apoptosis (annexin V, Facs) of peptide-loaded APC in co-culture, Epstein-Barr LMP2 epitope; set-up: species or system BALB/c mice; conditions: 25 μg peptide, 3 footpath injections in CFA/IFA; splenic CD4+ T cells co-cultured 24 h with APC loaded with SEQ ID NO:7 or SEQ ID NO:8 (5 μg/mL)
Protocol: The sequence of the peptide corresponds to amino acids 167 to 175 of LMP2, namely: VASSYAAAQ (SEQ ID NO:7).
Spleen adherent cells prepared from naïve BALB/c mice are used as antigen-presenting cells (APC).
as §1

CC(C)[C@H](NC(=O)[C@H](CCC(N)=O)NC(=O)[C@H](CCCNC(=N)N)NC(=O)[C@H](Cc1ccc(O)cc1)NC(=O)[C@H](CS)NC(=O)CNC(=O)[C@H](Cc1c[nH]cn1)NC(=O)[C@@H](N)CS)C(=O)N1CCC[C@H]1C(=O)NCC(=O)N[C@@H](CO)C(=O)N[C@@H](CC(=O)O)C(=O)N1CCC[C@H]1C(=O)O [SEQ ID NO:2, CHGCYRQVPGSDP] (H-CHGCYRQVPGSDP-OH)
elicitation of CD4+ T cells with cytotoxic properties towards APCs [1]: can elicit CD4+ T cells with cytotoxic properties

CC(C)C[C@H](NC(=O)[C@H](CCC(=O)O)NC(=O)[C@H](CCCCN)NC(=O)[C@H](Cc1ccccc1)NC(=O)[C@H](CS)NC(=O)CNC(=O)[C@H](Cc1c[nH]cn1)NC(=O)[C@@H](N)CS)C(=O)N[C@@H](CCC(=O)O)C(=O)NCC(=O)N[C@@H](Cc1c[nH]c2ccccc12)C(=O)N[C@@H](CCC(=O)O)C(=O)N1CCC[C@H]1C(=O)O [SEQ ID NO:6, CHGCFKELEGWEP] (H-CHGCFKELEGWEP-OH)
elicitation of CD4+ T cells with cytotoxic properties towards APCs [2]: can elicit CD4+ T cells with cytotoxic properties

CC(C)[C@H](NC(=O)[C@H](CS)NC(=O)CNC(=O)[C@H](Cc1c[nH]cn1)NC(=O)[C@@H](N)CS)C(=O)N[C@@H](C)C(=O)N[C@@H](CO)C(=O)N[C@@H](CO)C(=O)N[C@@H](Cc1ccc(O)cc1)C(=O)N[C@@H](C)C(=O)N[C@@H](C)C(=O)N[C@@H](C)C(=O)N[C@@H](CCC(N)=O)C(=O)O [SEQ ID NO:8, CHGCVASSYAAAQ] (H-CHGCVASSYAAAQ-OH)
elicitation of CD4+ T cells with cytotoxic properties towards APCs [3]: can elicit CD4+ T cells with cytotoxic properties
